Measured values taken from US7335373B2, “Biocidal siloxane coating material containing N-halogenated amine and amide functional groups” (Auburn University, priority 2003, dated 2008).

Legend:
[1] = Oxidative chlorine loading by iodometric/thiosulfate titration; conditions: cotton fabric treated directly with 2% by weight TTDD, chlorinated in 10 vol % bleach at pH 8 for 30 minutes
[2] = after 5 washing cycles

Cl^+ loading [1]: 0.57% | titratable chlorine after washing ([2]; TTDD-treated chlorinated cotton fabric): no titratable chlorine | rechlorination after washing ([2]; TTDD-treated cotton fabric): could not be rechlorinated
SMILES: CC1(C)CC2(CC(C)(C)N1)NC(=O)NC2=O [TTDD]
